Tests used:
[1] = biological target: T1, human ETA receptors (Homo sapiens, UniProt P25101); test: Endothelin binding inhibition, Binding Test #1: competition with 125I-ET-1 for ETA receptors on TE 671 cell membranes; conditions: incubation at 24° C. (values marked †)
T1 construct: endogenous in cells; host or cells: TE 671 cells (ATCC HTB 139), membrane preparation
T1 sequence (P25101 21-427): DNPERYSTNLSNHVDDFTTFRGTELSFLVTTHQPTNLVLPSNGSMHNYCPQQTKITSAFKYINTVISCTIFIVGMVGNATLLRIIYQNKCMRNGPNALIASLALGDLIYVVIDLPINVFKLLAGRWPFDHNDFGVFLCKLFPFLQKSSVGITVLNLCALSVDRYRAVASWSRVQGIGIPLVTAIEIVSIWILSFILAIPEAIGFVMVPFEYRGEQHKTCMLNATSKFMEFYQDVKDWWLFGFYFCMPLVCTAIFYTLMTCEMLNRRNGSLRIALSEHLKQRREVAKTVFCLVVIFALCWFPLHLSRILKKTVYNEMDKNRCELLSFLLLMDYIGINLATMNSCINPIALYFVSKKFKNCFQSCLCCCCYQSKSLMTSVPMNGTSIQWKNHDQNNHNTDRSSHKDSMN

[2] = biological target: T2, human ETB receptor (Homo sapiens, UniProt P24530); test: Endothelin binding inhibition, Binding Test #2: competition with 125I-ET-1 for ETB receptors on transfected COS7 cell membranes; conditions: for IC50: incubation at 24° C. (values marked †)
T2 construct: expressed in transfected cells; host or cells: COS7 cells
T2 sequence (P24530 27-442): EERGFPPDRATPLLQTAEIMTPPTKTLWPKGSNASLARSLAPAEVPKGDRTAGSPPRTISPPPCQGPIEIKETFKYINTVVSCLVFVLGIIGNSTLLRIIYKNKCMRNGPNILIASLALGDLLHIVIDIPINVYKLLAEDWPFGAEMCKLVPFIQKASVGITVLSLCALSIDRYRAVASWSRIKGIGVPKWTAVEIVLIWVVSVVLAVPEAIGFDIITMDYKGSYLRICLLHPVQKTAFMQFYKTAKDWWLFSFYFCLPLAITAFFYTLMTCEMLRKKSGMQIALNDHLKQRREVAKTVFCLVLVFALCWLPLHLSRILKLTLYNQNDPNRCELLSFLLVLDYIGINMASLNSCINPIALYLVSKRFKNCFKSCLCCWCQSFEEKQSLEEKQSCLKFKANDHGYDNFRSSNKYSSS
How it was run: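 Membranes from COS7 cells transfected with human ETB receptor, prepared in HEPES pH 7.4 with aprotinin, MnCl2/DNase treatment at 37° C for 30 min. Test compounds compete with 125I-labeled ET-1 for receptor binding; membrane used at 1 μg/50 μL binding buffer.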

Row | IC50 [1] [nM] | IC50 [2] [nM] | inhibition at 100 µM ([2]; read-out: ETB % inhibition @ 100 μM, @ 100 μM, incubation at 24° C.) [%] | SMILES
1 | 45 | 17700 |  | Cc1cc(C)cc(CC(=O)c2sccc2S(=O)(=O)Nc2onc(C)c2Cl)c1 [N-(4-chloro-3-methyl-5-isoxazolyl)-2-(3,5-dimethylphenylacetyl)thiophene-3-sulfonamide]
2 | 2500 | 30000 |  | Cc1noc(NS(=O)(=O)c2ccsc2C(=O)C(O)c2ccc3c(c2)OCO3)c1Cl (stereo not drawn) [N-(4-chloro-3-methyl-5-isoxazolyl)-2-{α-hydroxy-[3,4-(methylenedioxy)phenyl]acetyl}thiophene-3-sulfonamide]
3 | 128 | 2090 |  | Cc1noc(NS(=O)(=O)c2ccsc2CC2(c3ccc4c(c3)OCO4)OCCO2)c1Cl [N-(4-chloro-3-methyl-5-isoxazolyl)-2-[β,β-(ethylenedioxy)-3,4-(methylenedioxy)phenethyl]thiophene-3-sulfonamide]
4 | 11 ± 5 | 936 ± 95 |  | Cc1noc(NS(=O)(=O)c2c(Cc3ccc4c(c3)OCO4)sc3ccccc23)c1Cl [N-(4-chloro-3-methyl-5-isoxazolyl)-2-[(3,4-methylenedioxy)benzyl]benzo[b]thiophene-3-sulfonamide]
5 | ~100 | ~6000 |  | Cc1cc2c(cc1C=CCc1ccsc1S(=O)(=O)Nc1onc(C)c1Br)OCO2 [N-(4-bromo-3-methyl-5-isoxazolyl)-3-[2-methyl-4,5-(methylenedioxy)cinnamyl]thiophene-2-sulfonamide]
6 | 9 | 13800 |  | Cc1noc(NS(=O)(=O)c2ccsc2C(=O)Nc2cc3c(cc2CC(=O)N(C)C)OCO3)c1Cl [N-(4-chloro-3-methyl-5-isoxazolyl)-2-{2-[(dimethylamino)carbonylmethyl]-4,5-(methylenedioxy)phenylaminocarbonyl}thiophene-3-sulfonamide]
7 | 150 | 22000 |  | CCc1oc2ccccc2c1S(=O)(=O)Nc1onc(C)c1Cl [N-(4-chloro-3-methyl-5-isoxazolyl)-2-ethylbenzo[b]furan-3-sulfonamide]

Continued, compound first:

Row | SMILES | IC50 [1] [nM] | IC50 [2] [nM] | inhibition at 100 µM ([2]; read-out: ETB % inhibition @ 100 μM, @ 100 μM, incubation at 24° C.) [%]
8 | Cc1noc(NS(=O)(=O)c2ccsc2C(=O)Nc2ccc3c(c2)OCO3)c1Br [N-(4-bromo-3-methyl-5-isoxazolyl)-2-[(3,4-methylenedioxyphenyl)aminocarbonyl]thiophene-3-sulfonamide] | 17 | 9800 | 
9 | COc1ccccc1OC(=O)c1sccc1S(=O)(=O)Nc1onc(C)c1Br [N-(4-bromo-3-methyl-5-isoxazolyl)-2-[(2-methoxylphenoxy)carbonyl]thiophene-3-sulfonamide] | 761 |  | 29
10 | CC(=O)OCCOc1cc2c(cc1NC(=O)c1sccc1S(=O)(=O)Nc1onc(C)c1Cl)OCO2 [N-(4-chloro-3-methyl-5-isoxazolyl)-2-[3,4-(methylenedioxy)-6-(2-acetoxyethoxy)]phenylaminocarbonyl]thiophene-3-sulfonamide] | ~20 | ~18000 | 
11 | COc1cccc(CC(=O)c2sccc2S(=O)(=O)Nc2onc(C)c2Br)c1 [N-(4-bromo-3-methyl-5-isoxazolyl)-2-[(3-methoxyphenyl)acetyl]thiophene-3-sulfonamide] | 30 | 19100 | 
12 | Cc1noc(NS(=O)(=O)c2c(Cc3ccc(Cl)cc3)sc3ccccc23)c1C [N-(3,4-dimethyl-5-isoxazolyl)-2-(4-chlorobenzyl)benzo[b]thiophene-3-sulfonamide] | 210 | 4700 | 
13 | Cc1noc(NS(=O)(=O)c2ccsc2NC(=O)Nc2ccc3c(c2)OCO3)c1Br [N-(4-bromo-3-methyl-5-isoxazolyl)-2-[(3,4-methylenedioxy)phenylureido]thiophene-3-sulfonamide] | 570 | 1300 | 
14 | Cc1noc(NS(=O)(=O)c2ccsc2C(=O)NC(=O)c2ccc3c(c2)OCO3)c1Br [N-(4-bromo-3-methyl-5-isoxazolyl)-2-[(3,4-methylenedioxy)benzoyl]aminocarbonyl]thiophene-3-sulfonamide] | 89 | 37000 | 

From US6632829B2, “Sulfonamides and derivatives thereof that modulate the activity of endothelin” (Texas Biotechnology Corp., priority 1996, dated 2003)
